Earlier results, collected in patent US10352920B2, “Supplements and monitoring systems for dosing of the supplements” (i-CalQ, LLC, priority 2012, dated 2019).

What was measured:
[1] = system: lipoxygenase; conditions: in vitro
[2] = dietary curcumin
[3] = target: inducible nitric oxide synthase (Homo sapiens, UniProt P35228); conditions: in vitro
[4] = system: cognitive function; conditions: administration of 9 grams
[5] = system: cortisol; conditions: ingestion of 1 gram for 7 days
[6] = system: athletes involved in cycling, weight training and endurance running; conditions: sports nutrition studies

inducible nitric oxide synthase, sequence (P35228 whole entry): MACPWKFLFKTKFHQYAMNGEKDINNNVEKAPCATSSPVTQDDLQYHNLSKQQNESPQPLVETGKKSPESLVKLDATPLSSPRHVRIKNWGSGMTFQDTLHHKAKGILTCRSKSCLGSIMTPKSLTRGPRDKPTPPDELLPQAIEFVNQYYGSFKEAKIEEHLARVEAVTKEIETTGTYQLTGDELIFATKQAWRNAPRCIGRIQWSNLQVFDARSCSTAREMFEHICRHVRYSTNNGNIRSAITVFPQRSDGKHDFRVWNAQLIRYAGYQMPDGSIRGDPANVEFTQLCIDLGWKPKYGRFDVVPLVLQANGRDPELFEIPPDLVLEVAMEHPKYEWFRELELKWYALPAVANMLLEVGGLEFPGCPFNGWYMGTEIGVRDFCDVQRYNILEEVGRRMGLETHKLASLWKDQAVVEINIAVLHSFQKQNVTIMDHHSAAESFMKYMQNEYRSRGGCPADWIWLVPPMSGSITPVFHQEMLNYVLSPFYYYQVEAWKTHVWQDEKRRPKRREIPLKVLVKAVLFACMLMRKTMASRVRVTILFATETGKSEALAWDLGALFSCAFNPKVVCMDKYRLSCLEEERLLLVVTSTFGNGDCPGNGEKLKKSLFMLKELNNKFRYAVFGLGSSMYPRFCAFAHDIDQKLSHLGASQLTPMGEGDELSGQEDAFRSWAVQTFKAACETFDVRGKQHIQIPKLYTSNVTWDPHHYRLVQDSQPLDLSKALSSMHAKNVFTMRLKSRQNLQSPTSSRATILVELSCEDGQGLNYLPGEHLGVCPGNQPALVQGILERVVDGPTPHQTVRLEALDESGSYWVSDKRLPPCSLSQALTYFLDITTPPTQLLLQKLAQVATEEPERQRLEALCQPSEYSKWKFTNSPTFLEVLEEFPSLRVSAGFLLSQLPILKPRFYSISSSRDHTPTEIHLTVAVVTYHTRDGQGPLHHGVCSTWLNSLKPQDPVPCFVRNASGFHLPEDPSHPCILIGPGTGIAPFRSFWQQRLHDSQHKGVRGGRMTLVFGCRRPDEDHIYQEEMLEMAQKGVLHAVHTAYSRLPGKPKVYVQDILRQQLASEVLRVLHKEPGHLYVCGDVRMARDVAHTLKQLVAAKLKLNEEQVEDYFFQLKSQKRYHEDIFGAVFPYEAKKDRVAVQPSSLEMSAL

COc1cc(/C=C/C(=O)CC(=O)/C=C/c2ccc(O)c(OC)c2)ccc1O [curcumin]
activity of lipoxygenase [1]: down-regulating the activity | bioavailability (levels in plasma and tissues) [2]: poor bioavailability | activity of inducible nitric oxide synthase [3]: down-regulating the activity

N[C@@H](Cc1ccc(O)cc1)C(=O)O [tyrosine]
cognitive function following experimentally induced hypothermia [4]: improves cognitive function

O=C1O[C@H]([C@@H](O)CO)C(O)=C1O [vitamin C]
cortisol rise in response to lipopolysaccharide administration [5]: blunts the cortisol rise

phosphotidylserine
muscle soreness [6]: prevent muscle soreness | recovery [6]: speed up recovery | well-being [6]: improve well-being
